Columns and labels:
[1] = Hygroscopicity of the crystalline form; type: physicochemical; settings: solid state form
[2] = Polymorphic stability at up to 100% relative humidity at room temperature; type: physicochemical

Which results are given for `CC(C)CC(=O)Nc1cncc(-c2ccc3[nH]nc(-c4nc5c(-c6cccc(F)c6)cncc5[nH]4)c3c2)c1` [Form Q, N-[5-[3-[7-(3-fluorophenyl)-3H-imidazo[4,5-c]pyridin-2-yl]-1H-indazol-5-yl]pyridin-3-yl]-3-methylbutanamide]?
hygroscopicity [1]: non-hygroscopic; time polymorphically stable [2]: at least 7 days

— patent US12637459B2, “Solid state forms of Lorecivivint” (TAPI CZECH INDUSTRIES S.R.O., priority 2020, dated 2026)
